Data published in US20240191217A1, “CAS10-BASED ASSAY FOR NUCLEIC ACID DETECTION” (priority 2021, published 2024).

Key:
Type in all cases: biochemical
[1] = biological target: T1, VmeNucC (Vibrio metoecus, UniProt P0DUD6); test: NucC assay using synthetic cA3 as activator; details: FIG. 6
T1 construct: His8 (TEV-cleavable, vector pEV5HisTEV) (N, cleaved yes); made in house; host or cells: E. coli C43(DE3)
Protocol: FIG. 6: NucC assay using synthetic cA3 as activator. A: Selected fluorescence signal curves. B: The fluorescence intensities of measurements from 28-30 min reaction time were used for one-way ANOVA analysis. Multiplicity adjusted P values were calculated by Dunnett's multiple comparisons test (N=7). The assay was performed in duplicate. C: selected data from B with expanded y scale. ns: not significant, P value>0.05; ***: P value<0.001; ****: P value<0.0001.
(§1) All assays were performed on a FluoStar Omega plate reader (BMG Labtech) using fluorescence detection (λex/em 544/590 nm) and Corning black, non-binding half-area 96-well plates. […] Fluorescence was measured in 30 s intervals at 37° C. for up to 60 min. […] To determine limit of detection, the means of fluorescence intensities ranging between 28 and 32 min was analysed by one-way ANOVA and for multiple comparisons the Brown-Forsythe and Welch ANOVA test was applied. […] Relative activities between reaction conditions was determined by comparing the relative rates of the reactions. Rates were assumed to be proportional to the change in fluorescence signal over time and calculated from the slopes of linear regression analysis. Target specificity was analysed by extracting the time point (Tt) when the fluorescence intensity crossed a threshold value. […]

[2] = biological target: T2, NucC (Vibrio metoecus, UniProt P0DUD6); test: Degradation of cA3 by NucC, liquid chromatography with UV detection; details: 100 μM cA3 with 0.5 μM NucC in reaction buffer for 60 min
T2 construct: His8 (TEV-cleavable, vector pEV5HisTEV) (N, cleaved yes); made in house; host or cells: E. coli C43(DE3)
Protocol: LC chromatograms with UV monitoring at 254 nm showing the reaction of 100 μM cA3 with 0.5 μM NucC under assay conditions after 15 and 60 min. A reaction in which NucC had been omitted was allowed to proceed for 60 min.
Some Csx1/Csm6 family proteins have an intrinsic “ring nuclease” activity for the degradation of their cOA activator—an activity that is probably important in vivo for the control of the CRISPR mediated immune response (9). In the context of assay development however, this is an undesirable characteristic. Furthermore, it is difficult to remove this activity from Csx1/Csm6 family proteins as the activity is closely linked with cOA binding and/or with the HEPN ribonuclease activity (18, 19). To determine whether NucC degrades its cA3 activator, we incubated 100 μM cA3 with […] NucC in reaction buffer for 60 min and monitored the products by liquid chromatography and UV detection (FIG. 5) after removal of the enzyme by ultracentrifugation (MWCO 3 kDa). […] This is perhaps not surprising given that NucC is a double stranded DNase and the activator is a cyclic ribonucleotide.

[3] = biological target: T1, VmeNucC; test: Effect of ATP on NucC nuclease activity (fluorescent DNA duplex reporter)
Protocol: FIG. 4: Factors influencing NucC activity. Relative activities were determined by comparing the relative increase in fluorescence signal over time. A: Effect of NaCl concentration. B: NucC activity in different buffers. C: Effect of ATP on NucC nuclease activity.
as §1, with “value. The threshold value was set to ⅛^th of the maximal measured fluorescence signal of the reference target.” for “value.”

T1 sequence (P0DUD6 whole entry): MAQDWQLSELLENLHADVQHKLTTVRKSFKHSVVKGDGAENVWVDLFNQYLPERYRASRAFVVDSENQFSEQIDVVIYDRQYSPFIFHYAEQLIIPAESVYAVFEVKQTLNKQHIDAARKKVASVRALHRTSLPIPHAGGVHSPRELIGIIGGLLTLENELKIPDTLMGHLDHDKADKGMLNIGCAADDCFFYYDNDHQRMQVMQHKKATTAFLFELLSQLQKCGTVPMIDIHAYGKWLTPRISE
T2 sequence (P0DUD6 whole entry): as above

Structure (SMILES) | amount of synthetic cyclic nucleotide giving a clear signal [1] | depletion of cA3 by NucC [2] | NucC activity retained ([3]; ATP concentration of 2 mM) | effect of ATP on NucC ([3]; ATP concentrations above 500 μM)
Nc1ncnc2c1ncn2[C@@H]1O[C@@H]2COP(=O)(O)O[C@H]3[C@@H](O)[C@H](n4cnc5c(N)ncnc54)O[C@@H]3COP(=O)(O)O[C@H]3[C@@H](O)[C@H](n4cnc5c(N)ncnc54)O[C@@H]3COP(=O)(O)O[C@H]2[C@H]1O [cA3, cyclic tri-adenylate] | ≤ 10 pM | no significant depletion |  | 
Nc1ncnc2c1ncn2[C@@H]1O[C@H](COP(=O)(O)OP(=O)(O)OP(=O)(O)O)[C@@H](O)[C@H]1O [ATP] |  |  | 50% | minor adverse effect
